US9695154B2, “Heteroaryl inhibitors of sumo activating enzyme” (MILLENNIUM PHARMACEUTICALS, INC., priority 2013, dated 2017)

Biological target: T1, recombinant human SAE enzyme (Homo sapiens, UniProt Q9UBT2)
T1 sequence (Q9UBT2 1-640): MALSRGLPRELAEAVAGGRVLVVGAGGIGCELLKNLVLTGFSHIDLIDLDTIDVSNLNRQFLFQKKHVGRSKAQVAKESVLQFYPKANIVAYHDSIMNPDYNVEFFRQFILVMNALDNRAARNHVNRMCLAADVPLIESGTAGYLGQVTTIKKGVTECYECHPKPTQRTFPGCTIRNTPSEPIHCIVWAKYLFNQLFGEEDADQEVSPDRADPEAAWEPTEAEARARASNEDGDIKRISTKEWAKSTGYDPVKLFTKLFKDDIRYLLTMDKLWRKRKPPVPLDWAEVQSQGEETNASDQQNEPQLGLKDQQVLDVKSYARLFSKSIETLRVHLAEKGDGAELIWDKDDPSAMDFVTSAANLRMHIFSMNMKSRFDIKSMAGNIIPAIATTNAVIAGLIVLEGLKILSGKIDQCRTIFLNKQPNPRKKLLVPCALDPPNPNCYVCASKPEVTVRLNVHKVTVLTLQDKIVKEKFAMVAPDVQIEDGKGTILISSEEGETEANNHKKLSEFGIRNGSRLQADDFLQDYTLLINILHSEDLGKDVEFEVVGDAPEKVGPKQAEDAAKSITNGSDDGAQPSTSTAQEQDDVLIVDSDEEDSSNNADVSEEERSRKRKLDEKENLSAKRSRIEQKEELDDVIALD
T1 sequence (Q9UBE0 1-346 partner): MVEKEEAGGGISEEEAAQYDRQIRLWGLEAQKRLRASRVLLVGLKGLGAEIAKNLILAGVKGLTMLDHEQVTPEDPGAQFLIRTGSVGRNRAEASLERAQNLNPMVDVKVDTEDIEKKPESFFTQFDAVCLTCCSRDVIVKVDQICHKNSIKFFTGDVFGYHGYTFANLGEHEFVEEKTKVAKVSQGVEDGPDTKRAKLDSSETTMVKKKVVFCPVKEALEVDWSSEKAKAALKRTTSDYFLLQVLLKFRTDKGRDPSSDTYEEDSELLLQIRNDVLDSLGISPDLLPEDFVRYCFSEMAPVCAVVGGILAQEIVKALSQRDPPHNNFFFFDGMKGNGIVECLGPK
Experiment: SAE HTRF Enzyme Assay
Type: biochemical
Settings: for IC50: class symbols A-C; for inhibition at 0.111 µM: compound concentration 0.111 μM, read-out: Percent Inhibition
Summary of the method: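 Reaction with 0.11 nM recombinant human SAE, 0.5 μM ATP, 0.01 μM Ubc9-GST, 0.125 μM Sumo-Flag in HEPES pH 7.5, MgCl2, GSH, BSA, 105 min at 24 °C. Stopped with EDTA/KF buffer carrying Eu-anti-Flag and anti-GST-APC; HTRF read after 2 h; % inhibition or IC50.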

Row | Structure (SMILES) | IC50 | inhibition at 0.111 µM
1 | NS(=O)(=O)OC[C@H]1C[C@@H](Nc2ncncc2C(=O)c2ccn(Cc3cccc(Cl)c3)c2)[C@@H](F)[C@@H]1O [Compound I-147, {(1R,2R,3R,4R)-4-[(5-{[1-(3-chlorobenzyl)-1H-pyrrol-3-yl]carbonyl}pyrimidin-4-yl)amino]-3-fluoro-2-hydroxycyclopentyl}methyl sulfamate] | < 10 nM | > 99%
2 | NS(=O)(=O)OC[C@H]1C[C@@H](Nc2ncncc2C(=O)c2cc(Cl)n(Cc3cc(C(F)(F)F)on3)c2)[C@@H](F)[C@@H]1O [Compound I-148, [(1R,2R,3R,4R)-4-({5-[(5-chloro-1-{[5-(trifluoromethyl)isoxazol-3-yl]methyl}-1H-pyrrol-3-yl)carbonyl]pyrimidin-4-yl}amino)-3-fluoro-2-hydroxycyclopentyl]methyl sulfamate] | 10 to 100 nM | 85%
3 | Cc1cn(Cc2cccc(Br)c2)cc1C(=O)c1cncnc1N[C@@H]1C[C@H](COS(N)(=O)=O)[C@@H](O)[C@@H]1F [Compound I-149, {(1R,2R,3R,4R)-4-[(5-{[1-(3-bromobenzyl)-4-methyl-1H-pyrrol-3-yl]carbonyl}pyrimidin-4-yl)amino]-3-fluoro-2-hydroxycyclopentyl}methyl sulfamate] | 10 to 100 nM | 85%
4 | NS(=O)(=O)OC[C@H]1C[C@@H](Nc2ncncc2C(=O)c2ccn(Cc3ccccn3)n2)[C@H](O)[C@@H]1O [Compound I-150, {(1R,2R,3S,4R)-2,3-dihydroxy-4-[(5-{[1-(pyridin-2-ylmethyl)-1H-pyrazol-3-yl]carbonyl}pyrimidin-4-yl)amino]cyclopentyl}methyl sulfamate] | < 10 nM | 98%
5 | COC(C)(C)C#CCn1ccc(C(=O)c2cncnc2N[C@@H]2C[C@H](COS(N)(=O)=O)[C@@H](O)C2)n1 [Compound I-151, {(1R,2S,4R)-2-hydroxy-4-[(5-{[1-(4-methoxy-4-methylpent-2-yn-1-yl)-1H-pyrazol-3-yl]carbonyl}pyrimidin-4-yl)amino]cyclopentyl}methyl sulfamate] | 10 to 100 nM | 54%
6 | NS(=O)(=O)OC[C@H]1C[C@@H](Nc2ncncc2C(=O)c2ccn(Cc3ccc(Cl)c(OC(F)(F)F)c3)n2)C[C@@H]1O [Compound I-152, [(1R,2S,4R)-4-{[5-({1-[4-Chloro-3-(trifluoromethoxy)benzyl]-1H-pyrazol-3-yl}carbonyl)pyrimidin-4-yl]amino}-2-hydroxycyclopentyl]methyl sulfamate] | < 10 nM | 94%
7 | CC(C)CC#CCn1ccc(C(=O)c2cncnc2N[C@@H]2C[C@H](COS(N)(=O)=O)[C@@H](O)C2)n1 [Compound I-153, {(1R,2S,4R)-2-hydroxy-4-[(5-{[1-(5-methylhex-2-yn-1-yl)-1H-pyrazol-3-yl]carbonyl}pyrimidin-4-yl)amino]cyclopentyl}methyl sulfamate] | 10 to 100 nM | 82%
8 | CC(C)(O)C#CCn1ccc(C(=O)c2cncnc2N[C@@H]2C[C@H](COS(N)(=O)=O)[C@@H](O)C2)n1 [Compound I-154, {(1R,2S,4R)-2-hydroxy-4-[(5-{[1-(4-hydroxy-4-methylpent-2-yn-1-yl)-1H-pyrazol-3-yl]carbonyl}pyrimidin-4-yl)amino]cyclopentyl}methyl sulfamate] | 100 to 1000 nM | 39%
9 | NS(=O)(=O)OC[C@H]1C[C@@H](Nc2ncncc2C(=O)c2ccn(Cc3cc(C(F)(F)F)cc(C(F)(F)F)c3)n2)[C@H](O)[C@@H]1O [Compound I-155, [(1R,2R,3S,4R)-4-{[5-({1-[3,5-bis(trifluoromethyl)benzyl]-1H-pyrazol-3-yl}carbonyl)pyrimidin-4-yl]amino}-2,3-dihydroxycyclopentyl]methyl sulfamate] | < 10 nM | 97%
10 | NS(=O)(=O)OC[C@H]1C[C@@H](Nc2ncncc2C(=O)c2ccn(Cc3ccc(Cl)c(C(F)(F)F)c3)n2)[C@@H](F)[C@@H]1O [Compound I-156, [(1R,2R,3R,4R)-4-{[5-({1-[4-chloro-3-(trifluoromethyl)benzyl]-1H-pyrazol-3-yl}carbonyl)pyrimidin-4-yl]amino}-3-fluoro-2-hydroxycyclopentyl]methyl sulfamate] | 10 to 100 nM | 90%
11 | CN(c1ncncc1C(=O)c1ccn(Cc2cccc(Br)c2)n1)[C@@H]1C[C@H](COS(N)(=O)=O)[C@@H](O)C1 [Compound I-157, {(1R,2S,4R)-4-[(5-{[1-(3-Bromobenzyl)-1H-pyrazol-3-yl]carbonyl}pyrimidin-4-yl)(methyl)amino]-2-hydroxycyclopentyl}methyl sulfamate] | 10 to 100 nM | 67%
12 | NS(=O)(=O)OC[C@H]1C[C@@H](Nc2ncncc2C(=O)c2ccn(Cc3ccccc3)n2)C[C@@H]1O [Compound I-158, [(1R,2S,4R)-4-({5-[(1-Benzyl-1H-pyrazol-3-yl)carbonyl]pyrimidin-4-yl}amino)-2-hydroxycyclopentyl]methyl sulfamate] | < 10 nM | 95%
13 | NS(=O)(=O)OC[C@H]1C[C@@H](Nc2ncncc2C(=O)c2ccn(Cc3ccc(Cl)c(Cl)c3)n2)[C@H](O)[C@@H]1O [Compound I-159, {(1R,2R,3S,4R)-4-[(5-{[1-(3,4-dichlorobenzyl)-1H-pyrazol-3-yl]carbonyl}pyrimidin-4-yl)amino]-2,3-dihydroxycyclopentyl}methyl sulfamate] | < 10 nM | 96%
14 | NS(=O)(=O)OC[C@H]1C[C@@H](Nc2ncncc2C(=O)c2ccn(Cc3ccncc3)n2)[C@H](O)[C@@H]1O [Compound I-160, {(1R,2R,3S,4R)-2,3-dihydroxy-4-[(5-{[1-(pyridin-4-ylmethyl)-1H-pyrazol-3-yl]carbonyl}pyrimidin-4-yl)amino]cyclopentyl}methyl sulfamate] | 10 to 100 nM | 81%
15 | NS(=O)(=O)OC[C@H]1C[C@@H](Nc2ncncc2C(=O)c2ccn(Cc3ccc(F)cc3)n2)C[C@@H]1O [Compound I-161, {(1R,2S,4R)-4-[(5-{[1-(4-fluorobenzyl)-1H-pyrazol-3-yl]carbonyl}pyrimidin-4-yl)amino]-2-hydroxycyclopentyl}methyl sulfamate] | < 10 nM | 92%
16 | Cc1ccnc(Cn2ccc(C(=O)c3cncnc3N[C@@H]3C[C@H](COS(N)(=O)=O)[C@@H](O)C3)n2)c1 [Compound I-162, [(1R,2S,4R)-2-hydroxy-4-{[5-({1-[(4-methylpyridin-2-yl)methyl]-1H-pyrazol-3-yl}carbonyl)pyrimidin-4-yl]amino}cyclopentyl]methyl sulfamate] | < 10 nM | 99%
17 | NS(=O)(=O)OC[C@H]1C[C@@H](Nc2ncncc2C(=O)c2ccn(Cc3ccc(C(F)(F)F)o3)n2)C[C@@H]1O [Compound I-163, [(1R,2S,4R)-2-hydroxy-4-({5-[(1-{[5-(trifluoromethyl)-2-furyl]methyl}-1H-pyrazol-3-yl)carbonyl]pyrimidin-4-yl}amino)cyclopentyl]methyl sulfamate] | < 10 nM | 98%
18 | C#Cc1cccc(Cn2nc(C(=O)c3cncnc3N[C@@H]3C[C@H](COS(N)(=O)=O)[C@@H](O)C3)cc2C)c1 [Compound I-164, {(1R,2S,4R)-4-[(5-{[1-(3-ethynylbenzyl)-5-methyl-1H-pyrazol-3-yl]carbonyl}pyrimidin-4-yl)amino]-2-hydroxycyclopentyl}methyl sulfamate] | < 10 nM | > 99%
19 | NS(=O)(=O)OC[C@H]1C[C@@H](Nc2ncncc2C(=O)c2ccn(Cc3cccc(F)c3)n2)C[C@@H]1O [Compound I-165, {(1R,2S,4R)-4-[(5-{[1-(3-fluorobenzyl)-1H-pyrazol-3-yl]carbony1}pyrimidin-4-yl)amino]-2-hydroxycyclopentyl}methyl sulfamate] | < 10 nM | 98%
20 | C#Cc1cc(Cn2ccc(C(=O)c3cncnc3N[C@@H]3C[C@H](COS(N)(=O)=O)[C@@H](O)C3)n2)ccc1F [Compound I-166, {(1R,2S,4R)-4-[(5-{[1-(3-ethynyl-4-fluorobenzyl)-1H-pyrazol-3-yl]carbonyl}pyrimidin-4-yl)amino]-2-hydroxycyclopentyl}methyl sulfamate] | < 10 nM | 98%
